Experimental data: the NIST ThermoML archive (doi:10.1021/acs.jced.8b01135)
± gives the expanded uncertainty stated by the source.

Assay: xn = mol fraction of the nth substance listed
Conditions: 102 kPa, Liquid; for speed of sound: Frequency=3 MHz, Single path-length method; for mass density: Vibrating tube method; for viscosity: Concentric cylinders viscometry

CCCCCCC1CCCCC1 [hexylcyclohexane] + CCCCCCCCCCCC
Conditions | mass density [kg/m3] | speed of sound [m/s] | viscosity [mPa·s]
288.15 K, x1 = 0.1009 | 757.85 ± 0.71 | 1322.7 ± 0.9 | –
288.15 K, x1 = 0.1998 | 763.33 ± 0.72 | 1328.2 ± 0.9 | –
288.15 K, x1 = 0.3001 | 768.99 ± 0.72 | 1334.2 ± 1 | –
288.15 K, x1 = 0.4001 | 774.72 ± 0.72 | 1340.2 ± 1 | –
288.15 K, x1 = 0.5004 | 780.57 ± 0.72 | 1346.3 ± 1.1 | –
288.15 K, x1 = 0.5996 | 786.46 ± 0.73 | 1352.5 ± 1.1 | –
288.15 K, x1 = 0.7005 | 792.54 ± 0.73 | 1359.2 ± 1.2 | –
288.15 K, x1 = 0.7996 | 798.63 ± 0.74 | 1365.9 ± 1.3 | –
288.15 K, x1 = 0.8997 | 804.88 ± 0.74 | 1373 ± 1.3 | –
288.15 K, x1 = 1 | 811.34 ± 0.75 | 1380.4 ± 1.4 | –
293.15 K, x1 = 0.1002 | – | – | 1.53 ± 0.02
293.15 K, x1 = 0.1009 | 754.24 ± 0.71 | 1303.2 ± 0.9 | –
293.15 K, x1 = 0.1998 | 759.72 ± 0.72 | 1308.8 ± 0.9 | –
293.15 K, x1 = 0.201 | – | – | 1.58 ± 0.02
293.15 K, x1 = 0.3 | – | – | 1.64 ± 0.02
293.15 K, x1 = 0.3001 | 765.39 ± 0.72 | 1314.7 ± 1 | –
293.15 K, x1 = 0.3998 | – | – | 1.7 ± 0.02
293.15 K, x1 = 0.4001 | 771.13 ± 0.72 | 1320.7 ± 1 | –
293.15 K, x1 = 0.5002 | – | – | 1.76 ± 0.02
293.15 K, x1 = 0.5004 | 776.99 ± 0.72 | 1326.9 ± 1.1 | –
293.15 K, x1 = 0.5996 | 782.88 ± 0.73 | 1333.2 ± 1.1 | –
293.15 K, x1 = 0.5999 | – | – | 1.83 ± 0.02
293.15 K, x1 = 0.6998 | – | – | 1.91 ± 0.02
293.15 K, x1 = 0.7005 | 788.97 ± 0.73 | 1339.8 ± 1.2 | –
293.15 K, x1 = 0.7996 | 795.06 ± 0.74 | 1346.5 ± 1.3 | –
293.15 K, x1 = 0.8001 | – | – | 1.99 ± 0.02
293.15 K, x1 = 0.8997 | 801.31 ± 0.74 | 1353.4 ± 1.3 | –
293.15 K, x1 = 0.8998 | – | – | 2.08 ± 0.03
293.15 K, x1 = 1 | 807.76 ± 0.75 | 1360.9 ± 1.4 | 2.19 ± 0.03
298.15 K, x1 = 0.1009 | 750.61 ± 0.71 | 1283.8 ± 0.9 | –
298.15 K, x1 = 0.1998 | 756.11 ± 0.72 | 1289.4 ± 0.9 | –
298.15 K, x1 = 0.3001 | 761.78 ± 0.72 | 1295.3 ± 1 | –
298.15 K, x1 = 0.4001 | 767.53 ± 0.72 | 1301.3 ± 1 | –
298.15 K, x1 = 0.5004 | 773.39 ± 0.72 | 1307.5 ± 1.1 | –
298.15 K, x1 = 0.5996 | 779.29 ± 0.73 | 1313.8 ± 1.1 | –
298.15 K, x1 = 0.7005 | 785.38 ± 0.73 | 1320.4 ± 1.2 | –
298.15 K, x1 = 0.7996 | 791.48 ± 0.74 | 1327.1 ± 1.3 | –
298.15 K, x1 = 0.8997 | 797.74 ± 0.74 | 1334 ± 1.3 | –
298.15 K, x1 = 1 | 804.19 ± 0.75 | 1341.4 ± 1.4 | –
303.15 K, x1 = 0.1002 | – | – | 1.3 ± 0.02
303.15 K, x1 = 0.1009 | 746.99 ± 0.71 | 1264.6 ± 0.9 | –
303.15 K, x1 = 0.1998 | 752.5 ± 0.72 | 1270.2 ± 0.9 | –
303.15 K, x1 = 0.201 | – | – | 1.34 ± 0.02
303.15 K, x1 = 0.3 | – | – | 1.38 ± 0.02
303.15 K, x1 = 0.3001 | 758.17 ± 0.72 | 1276.1 ± 1 | –
303.15 K, x1 = 0.3998 | – | – | 1.43 ± 0.02
303.15 K, x1 = 0.4001 | 763.92 ± 0.72 | 1282.1 ± 1 | –
303.15 K, x1 = 0.5002 | – | – | 1.48 ± 0.02
303.15 K, x1 = 0.5004 | 769.79 ± 0.72 | 1288.3 ± 1.1 | –
303.15 K, x1 = 0.5996 | 775.7 ± 0.73 | 1294.6 ± 1.1 | –
303.15 K, x1 = 0.5999 | – | – | 1.54 ± 0.02
303.15 K, x1 = 0.6998 | – | – | 1.6 ± 0.02
303.15 K, x1 = 0.7005 | 781.79 ± 0.73 | 1301.2 ± 1.2 | –
303.15 K, x1 = 0.7996 | 787.89 ± 0.74 | 1307.8 ± 1.3 | –
303.15 K, x1 = 0.8001 | – | – | 1.66 ± 0.02
303.15 K, x1 = 0.8997 | 794.16 ± 0.74 | 1314.7 ± 1.3 | –
303.15 K, x1 = 0.8998 | – | – | 1.74 ± 0.02
303.15 K, x1 = 1 | 800.61 ± 0.75 | 1322.1 ± 1.4 | 1.79 ± 0.03
313.15 K, x1 = 0.1002 | – | – | 1.11 ± 0.02
313.15 K, x1 = 0.1009 | 739.73 ± 0.71 | 1226.8 ± 0.9 | –
313.15 K, x1 = 0.1998 | 745.25 ± 0.72 | 1232.4 ± 0.9 | –
313.15 K, x1 = 0.201 | – | – | 1.14 ± 0.02
313.15 K, x1 = 0.3 | – | – | 1.17 ± 0.02
313.15 K, x1 = 0.3001 | 750.94 ± 0.72 | 1238.3 ± 1 | –
313.15 K, x1 = 0.3998 | – | – | 1.21 ± 0.02
313.15 K, x1 = 0.4001 | 756.7 ± 0.72 | 1244.3 ± 1 | –
313.15 K, x1 = 0.5002 | – | – | 1.25 ± 0.02
313.15 K, x1 = 0.5004 | 762.59 ± 0.72 | 1250.5 ± 1.1 | –
313.15 K, x1 = 0.5996 | 768.5 ± 0.73 | 1256.8 ± 1.1 | –
313.15 K, x1 = 0.5999 | – | – | 1.3 ± 0.02
313.15 K, x1 = 0.6998 | – | – | 1.34 ± 0.02
313.15 K, x1 = 0.7005 | 774.6 ± 0.73 | 1263.4 ± 1.2 | –
313.15 K, x1 = 0.7996 | 780.72 ± 0.74 | 1270.1 ± 1.3 | –
313.15 K, x1 = 0.8001 | – | – | 1.4 ± 0.02
313.15 K, x1 = 0.8997 | 786.99 ± 0.74 | 1276.9 ± 1.3 | –
313.15 K, x1 = 0.8998 | – | – | 1.46 ± 0.02
313.15 K, x1 = 1 | 793.43 ± 0.75 | 1284.2 ± 1.4 | 1.52 ± 0.03
323.15 K, x1 = 0.1002 | – | – | 0.958 ± 0.021
323.15 K, x1 = 0.1009 | 732.44 ± 0.72 | 1189.7 ± 0.9 | –
323.15 K, x1 = 0.1998 | 737.97 ± 0.72 | 1195.4 ± 0.9 | –
323.15 K, x1 = 0.201 | – | – | 0.986 ± 0.021
323.15 K, x1 = 0.3 | – | – | 1.01 ± 0.02
323.15 K, x1 = 0.3001 | 743.68 ± 0.72 | 1201.3 ± 1 | –
323.15 K, x1 = 0.3998 | – | – | 1.05 ± 0.02
323.15 K, x1 = 0.4001 | 749.46 ± 0.72 | 1207.4 ± 1 | –
323.15 K, x1 = 0.5002 | – | – | 1.08 ± 0.02
323.15 K, x1 = 0.5004 | 755.35 ± 0.72 | 1213.6 ± 1.1 | –
323.15 K, x1 = 0.5996 | 761.28 ± 0.73 | 1219.8 ± 1.1 | –
323.15 K, x1 = 0.5999 | – | – | 1.12 ± 0.02
323.15 K, x1 = 0.6998 | – | – | 1.15 ± 0.02
323.15 K, x1 = 0.7005 | 767.39 ± 0.73 | 1226.4 ± 1.2 | –
323.15 K, x1 = 0.7996 | 773.52 ± 0.74 | 1233.1 ± 1.3 | –
323.15 K, x1 = 0.8001 | – | – | 1.2 ± 0.02
323.15 K, x1 = 0.8997 | 779.8 ± 0.74 | 1239.8 ± 1.3 | –
323.15 K, x1 = 0.8998 | – | – | 1.25 ± 0.02
323.15 K, x1 = 1 | 786.25 ± 0.75 | 1247.1 ± 1.4 | 1.3 ± 0.03
333.15 K, x1 = 0.1002 | – | – | 0.833 ± 0.021
333.15 K, x1 = 0.1009 | 725.11 ± 0.72 | 1153.6 ± 0.9 | –
333.15 K, x1 = 0.1998 | 730.66 ± 0.72 | 1159.3 ± 0.9 | –
333.15 K, x1 = 0.201 | – | – | 0.855 ± 0.021
333.15 K, x1 = 0.3 | – | – | 0.88 ± 0.021
333.15 K, x1 = 0.3001 | 736.38 ± 0.72 | 1165.3 ± 1 | –
333.15 K, x1 = 0.3998 | – | – | 0.906 ± 0.021
333.15 K, x1 = 0.4001 | 742.18 ± 0.72 | 1171.3 ± 1 | –
333.15 K, x1 = 0.5002 | – | – | 0.935 ± 0.021
333.15 K, x1 = 0.5004 | 748.09 ± 0.72 | 1177.6 ± 1.1 | –
333.15 K, x1 = 0.5996 | 754.02 ± 0.73 | 1183.9 ± 1.1 | –
333.15 K, x1 = 0.5999 | – | – | 0.966 ± 0.021
333.15 K, x1 = 0.6998 | – | – | 1 ± 0.02
333.15 K, x1 = 0.7005 | 760.16 ± 0.73 | 1190.5 ± 1.2 | –
333.15 K, x1 = 0.7996 | 766.29 ± 0.74 | 1197.1 ± 1.3 | –
333.15 K, x1 = 0.8001 | – | – | 1.04 ± 0.02
333.15 K, x1 = 0.8997 | 772.58 ± 0.74 | 1203.6 ± 1.3 | –
333.15 K, x1 = 0.8998 | – | – | 1.07 ± 0.02
333.15 K, x1 = 1 | 779.05 ± 0.75 | 1211 ± 1.4 | 1.12 ± 0.03
